# Patent EP0606463B1, “NEUROMEDIN B RECEPTOR ANTAGONISTS” (The Administrators of The Tulane Educational Fund, priority 1992, dated 1994)
# Where a SMILES comes first, the peptide text is derived from it. Bridges are numbered along the chain shown (N, C = ends). [ ]: non-standard residue; d: D form. 2Nal = N[C@@H](Cc1ccc2ccccc2c1)C(=O)O; d2Nal = N[C@H](Cc1ccc2ccccc2c1)C(=O)O
# How the values were obtained:
# [1] = molecular target: T1, N-methyl D-aspartate receptors (Rattus norvegicus, UniProt P35439); assay: N-methyl-D-aspartate membrane receptor assay; assay type: binding; details: at 1 µM
# T1 construct: from tissue; host or cells: rat cerebral cortex membranes
# [2] = molecular target: T2, β1-adrenergic (Homo sapiens, UniProt P08588); assay: beta1-adrenergic membrane receptor assay; assay type: binding; details: at 1 µM
# T2 construct: receptors on plasma membranes on various tissues determined as described in METHODS; from tissue
# T2 sequence (P08588 whole entry): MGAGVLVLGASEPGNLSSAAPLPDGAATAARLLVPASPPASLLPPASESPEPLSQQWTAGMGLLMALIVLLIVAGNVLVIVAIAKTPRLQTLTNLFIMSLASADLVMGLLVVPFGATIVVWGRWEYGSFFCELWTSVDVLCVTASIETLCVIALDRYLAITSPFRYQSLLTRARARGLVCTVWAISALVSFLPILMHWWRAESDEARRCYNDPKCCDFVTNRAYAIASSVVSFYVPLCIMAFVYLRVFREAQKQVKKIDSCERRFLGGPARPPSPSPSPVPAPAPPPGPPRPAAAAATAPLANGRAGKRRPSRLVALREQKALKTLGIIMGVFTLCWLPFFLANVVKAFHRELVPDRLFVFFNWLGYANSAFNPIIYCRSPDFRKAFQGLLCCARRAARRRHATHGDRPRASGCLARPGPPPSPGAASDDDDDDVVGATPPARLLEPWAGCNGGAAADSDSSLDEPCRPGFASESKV
# [3] = molecular target: T3, NMB receptors on C-6 glioblastoma cells (Rattus norvegicus, UniProt P24053); assay: NMB-stimulated [3H]IP in C-6 glioblastoma cells; assay type: cell-based
# T3 construct: endogenous in cells; host or cells: rat glioblastoma C-6 cells
# T3 sequence (P24053 1-390): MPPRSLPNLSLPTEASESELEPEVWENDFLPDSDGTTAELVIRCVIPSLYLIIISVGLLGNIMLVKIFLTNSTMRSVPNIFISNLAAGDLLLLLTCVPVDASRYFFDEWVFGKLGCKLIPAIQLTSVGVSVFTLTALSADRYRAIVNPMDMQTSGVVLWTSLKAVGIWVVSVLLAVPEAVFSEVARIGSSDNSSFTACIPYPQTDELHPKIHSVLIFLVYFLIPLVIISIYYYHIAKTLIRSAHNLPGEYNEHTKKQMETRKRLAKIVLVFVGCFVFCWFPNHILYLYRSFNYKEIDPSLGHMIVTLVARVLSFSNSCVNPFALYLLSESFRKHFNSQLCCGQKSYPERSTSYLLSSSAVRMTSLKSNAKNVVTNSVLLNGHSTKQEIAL
# Method: Total phosphoinositides in C-6 cells and in NMB-R transfected cells were determined as described previously, with minor modifications [Benya, R. V. et al. Mol. Pharmacol. 42:1058 (1992); and Wang, L-H. et al. Biochem. J. 286:641 (1992)]. Cells were grown to confluence in 24-well plates and then loaded with 100 µCi/ml myo-[2-^3H]inositol in Dulbecco's modified essential medium with 2% fetal bovine serum at 37°C for 48 hrs. Cells were washed and incubated in phosphoinositide buffer (standard buffer additionally containing 10 mM LiCl, 20 mM HEPES, 2 mM CaCl2, 2% BSA, and 1.2 mM MgSO4) for 15 min and then […] Reactions were halted using ice-cold 1% HCl in methanol, and the inositol phosphates (IP) were isolated as described previously [Bologna, M. et al. Cancer 63:1714 (1989); and Endo, T. et al. J. Endocrinol. 131:313 (1991)]. Briefly, after loading of the anion exchange column, free [^3H]glycerophosphorylinositol was removed by washing with 5 mM disodium tetraborate in 60 mM sodium formate. Total [^3H]inositol phosphates were then eluted using 100 mM formic acid in 1.0 M ammonium formate as described previously [Benya, R. V. et al. Mol. Pharmacol. 42:1058 (1992); and Wang, L-H. et al. Biochem. J. 286:641 (1992)].
# [4] = test system: bradykinin1; assay: Bradykinin membrane receptor assay; assay type: binding; details: at 1 µM
# [5] = test system: endothelin-1-simulated increases in [^3H]IP; assay: Endothelin-1-stimulated [3H]IP in C-6 glioblastoma cells; assay type: cell-based, rat; details: for effect on endothelin-1-simulated increases in [^3H]IP in C-6 cells: Table 3
# Method: Total phosphoinositides in C-6 cells and in NMB-R transfected cells were determined as described previously, with minor modifications [Benya, R. V. et al. Mol. Pharmacol. 42:1058 (1992); and Wang, L-H. et al. Biochem. J. 286:641 (1992)]. Cells were grown to confluence in 24-well plates and then loaded with 100 µCi/ml myo-[2-^3H]inositol in Dulbecco's modified essential medium with 2% fetal bovine serum at 37°C for 48 hrs. Cells were washed and incubated in phosphoinositide buffer (standard buffer additionally containing 10 mM LiCl, 20 mM HEPES, 2 mM CaCl2, 2% BSA, and 1.2 mM MgSO4) for 15 min and then for 60 min at 37°C with agonists at various concentrations or with 3 nM NMB (a half-maximal effective concentration) and possible antagonists at different concentrations. Reactions were halted using ice-cold 1% HCl in methanol, and the inositol phosphates (IP) were isolated as described previously [Bologna, M. et al. Cancer 63:1714 (1989); and Endo, T. et al. J. Endocrinol. 131:313 (1991)]. Briefly, after loading of the anion exchange column, free [^3H]glycerophosphorylinositol was removed by washing with 5 mM disodium tetraborate in 60 mM sodium formate. Total [^3H]inositol phosphates were then eluted using 100 mM formic acid in 1.0 M ammonium formate as described previously [Benya, R. V. et al. Mol. Pharmacol. 42:1058 (1992); and Wang, L-H. et al. Biochem. J. 286:641 (1992)].
# [6] = molecular target: T4, rat NMB receptor (Rattus norvegicus, UniProt P24053); assay: Binding of 125I-[D-Tyr0]NMB to NMB-R transfected BALB 3T3 cells; details: for fold greater affinity for the NMB than the GRP receptors: NMB-R transfected cells versus GRP receptors on rat pancreatic acini
# T4 construct: a full length NMB-preferring bombesin receptor clone generated from rat esophagus; expressed in transfected cells; host or cells: BALB 3T3 cells
# T4 sequence (P24053 1-390): T3 sequence (P24053 1-390)
# [7] = molecular target: T5, delta opioid (Rattus norvegicus, UniProt P33533); assay: delta opioid membrane assay; assay type: binding; details: at 1 µM
# T5 construct: rat forebrain (TRH, mu and delta opioid membrane assays); from tissue; host or cells: rat forebrain membranes
# T5 sequence (P33533 whole entry): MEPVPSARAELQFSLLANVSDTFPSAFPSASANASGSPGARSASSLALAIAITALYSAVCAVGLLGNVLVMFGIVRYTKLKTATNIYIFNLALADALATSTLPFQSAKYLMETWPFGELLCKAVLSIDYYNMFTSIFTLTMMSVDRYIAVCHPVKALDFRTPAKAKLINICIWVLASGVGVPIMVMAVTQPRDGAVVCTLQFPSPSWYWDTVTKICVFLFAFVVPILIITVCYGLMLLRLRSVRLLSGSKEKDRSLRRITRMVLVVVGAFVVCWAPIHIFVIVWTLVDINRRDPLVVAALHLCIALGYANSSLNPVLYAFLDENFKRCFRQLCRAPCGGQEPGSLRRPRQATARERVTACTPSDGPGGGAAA
# [8] = test system: PYY receptor; assay: PYY membrane receptor assay; assay type: binding, rat; details: at 1 µM
compound,measurement,setting,value
"CC(C)[C@@H]1NC(=O)[C@H](CCCCN)NC(=O)[C@@H](Cc2c[nH]c3ccccc23)NC(=O)[C@H](Cc2ccc(O)cc2)NC(=O)[C@@H](NC(=O)[C@H](N)Cc2ccc3ccccc3c2)CSSC[C@@H](C(=O)N[C@@H](Cc2ccc3ccccc3c2)C(N)=O)NC1=O [Analog #1, D-Nal-Cys-Tyr-D-Trp-Lys-Val-Cys-Nal-NH2] (H-[d2Nal]CY[dW]KVC[2Nal]-NH2; disulfide 2-7; N-terminus assumed)",inhibition of binding to N-methyl D-aspartate receptors,[1],did not inhibit binding
same,inhibition of binding to β1-adrenergic,[2],did not inhibit binding
same,"[^3H]IP, Peptide Added NMB (10 nM)","[3]; C-6 glioblastoma cells, analog 10 µM plus NMB 10 nM",7.5 ± 1.0 dpm x 10^3
same,"[^3H]IP, Peptide Added None","[3]; C-6 glioblastoma cells, analog 10 µM, no agonist, control 7.2±1.0",7.4 ± 1.3 dpm x 10^3
same,effect on NMB-stimulated increases in [^3H]IP in C-6 glioblastoma cells,[3]; Table 3,inhibited
same,inhibition of binding to bradykinin1,[4],did not inhibit binding
same,"[^3H]IP, Peptide Added ET-1 (0.1 nM)","[5]; C-6 glioblastoma cells, analog 10 µM plus ET-1 0.1 nM",10.9 ± 1.8 dpm x 10^3
same,effect on endothelin-1-simulated increases in [^3H]IP in C-6 cells,[5],had no effect
same,effect on endothelin-1-simulated increases in [^3H]IP in C-6 cells,[5]; listed as Cycle SS-octa,did not inhibit
same,complete inhibition of binding of ^125I-[Tyr^0]NMB at,[6]; NMB-R transfected cells,3 µM
same,fold greater affinity for the NMB than the GRP receptors,[6],84 fold
same,fold greater affinity for the NMB than the GRP receptors,[6]; listed as cyclo SS-octa,100 fold
same,detectible inhibition of binding of ^125I-[Tyr^0]NMB at,"[6]; NMB-R transfected cells, lowest concentration with detectable inhibition",0.1 µM
same,inhibition of binding to delta opioid,[7],did not inhibit binding
same,inhibition of binding to PYY,[8],did not inhibit binding
